From patent US20240270762A1, “PENICILLIN-BINDING PROTEIN INHIBITORS” (priority 2021, published 2024)
In brackets after ≈: the same amount, converted by molar mass.

Key:
[1] = molecular target: T1, PBP3 from Acinetobacter baumannii (ATCC 19606) (Acinetobacter baumannii, UniProt A0ABX6CK25); experiment: Bocillin-FL fluorescence polarization competition binding, A. baumannii PBP3; conditions: fluorescence polarization competition binding assay using Bocillin-FL; read-out: A. baumannii PBP3 Potency
T1 sequence (A0ABX6CK25 64-610): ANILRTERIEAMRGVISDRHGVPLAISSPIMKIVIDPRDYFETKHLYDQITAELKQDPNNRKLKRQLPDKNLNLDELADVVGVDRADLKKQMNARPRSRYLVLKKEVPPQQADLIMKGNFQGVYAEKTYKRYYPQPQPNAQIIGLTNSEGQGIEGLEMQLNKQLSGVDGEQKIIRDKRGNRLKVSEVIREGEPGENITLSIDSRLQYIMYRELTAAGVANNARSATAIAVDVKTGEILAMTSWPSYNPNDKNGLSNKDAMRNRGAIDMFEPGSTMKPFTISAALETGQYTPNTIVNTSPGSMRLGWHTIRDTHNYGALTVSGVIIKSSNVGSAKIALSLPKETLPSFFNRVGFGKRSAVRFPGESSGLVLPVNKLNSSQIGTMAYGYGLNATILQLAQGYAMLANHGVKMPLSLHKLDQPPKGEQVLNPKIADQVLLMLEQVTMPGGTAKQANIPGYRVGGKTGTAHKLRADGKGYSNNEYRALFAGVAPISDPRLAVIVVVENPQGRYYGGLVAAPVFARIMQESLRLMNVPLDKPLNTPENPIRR
Outline: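 Purified PBP was preincubated with inhibitor (E. coli PBP3 1.5 μM, 30 min; P. aeruginosa PBP3 0.75 μM, A. baumannii PBP3 0.2 μM and PBP1a 1 μM, 15 min), then Bocillin-FL (0.1 μM; 0.05 μM for PBP1a) added and FP read up to 60 min. EC50 = 50% loss of bound probe.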

[2] = system: A. baumannii ATCC 17978; experiment: microbe, parasite or virus in culture; type: cell-based; conditions: Acinetobacter baumannii, ATCC17978, read-out: MIC, A. baumannii ATCC 17978
[3] = system: A. baumannii ATCC 19606; experiment: microbe, parasite or virus in culture; type: cell-based; conditions: Acinetobacter baumannii, ATCC19606, read-out: MIC, A. baumannii ATCC 19606
[4] = system: P. aeruginosa ATCC 35151; experiment: microbe, parasite or virus in culture; type: cell-based; conditions: Pseudomonas aeruginosa, ATCC35151, read-out: Minimum inhibitory concentration, P. aeruginosa ATCC 35151
[5] = system: B. humptydooensis ATCC BAA-2767; experiment: microbe, parasite or virus in culture; type: cell-based; conditions: Burkholderia humptydooensis, ATCCBAA2767, read-out: Minimum inhibitory concentration (MIC), B. humptydooensis ATCC BAA-2767

O=C(NCCCN1CCN(C(=O)NC(C(=O)N[C@H]2Cc3ccc(F)c(C(=O)O)c3OB2O)c2cc(F)c(O)c(O)c2Cl)C(=O)C1=O)c1cc(F)ncc1F (mixture of isomers) [Example 405]
IC50 [1]: < 10 µM | MIC [2]: < 1 µg/mL | MIC [3]: < 1 µg/mL | MIC [4]: < 1 µg/mL | MIC [5]: 2 to 4 µg/mL

O=C(NCCCN1CCN(C(=O)N[C@@H](C(=O)N[C@H]2Cc3ccc(F)c(C(=O)O)c3OB2O)c2cc(F)c(O)c(O)c2Cl)C(=O)C1=O)c1cc(F)nc(F)c1 (racemic) [Example 401]
IC50 [1]: < 10 µM | MIC [2]: < 1 µg/mL | MIC [3]: < 1 µg/mL | MIC [4]: < 1 µg/mL | MIC [5]: > 128 µg/mL

O=C(NCCCN1CCN(C(=O)N[C@@H](C(=O)N[C@H]2Cc3ccc(F)c(C(=O)O)c3OB2O)c2cc(F)c(O)c(O)c2Cl)C(=O)C1=O)c1ccc(O)cc1F (racemic) [Example 417]
IC50 [1]: 10 to 50 µM | MIC [2]: < 1 µg/mL | MIC [3]: < 1 µg/mL | MIC [4]: < 1 µg/mL | MIC [5]: > 128 µg/mL

O=C(NCCCN1CCN(C(=O)N[C@@H](C(=O)N[C@H]2Cc3ccc(F)c(C(=O)O)c3OB2O)c2cc(F)c(O)c(O)c2Cl)C(=O)C1=O)c1c(F)cc(O)cc1F (racemic) [Example 420]
IC50 [1]: < 10 µM | MIC [2]: < 1 µg/mL | MIC [3]: < 1 µg/mL | MIC [4]: < 1 µg/mL | MIC [5]: 3 µg/mL (≈ 3.77 µM)

O=C(O)c1c(F)ccc2c1OB(O)[C@@H](NC(=O)[C@@H](NC(=O)N1CCN(C3CCN(C(=O)Nc4ccc(O)cc4)CC3)C1=O)c1cc(F)c(O)c(O)c1Cl)C2 (single isomer, unassigned) [Example 467]
IC50 [1]: < 10 µM | MIC [2]: < 1 µg/mL | MIC [3]: < 1 µg/mL | MIC [4]: < 1 µg/mL | MIC [5]: 2 to 4 µg/mL (≈ 2.59 to 5.18 µM)

O=C(O)c1c(F)ccc2c1OB(O)[C@@H](NC(=O)[C@H](NC(=O)N1CCN(C3CCN(C(=O)Nc4ccc(O)cc4)CC3)C1=O)c1cc(F)c(O)c(O)c1Cl)C2 (single isomer, unassigned) [Example 468]
IC50 [1]: < 10 µM | MIC [2]: < 1 µg/mL | MIC [3]: < 1 µg/mL | MIC [4]: < 1 µg/mL | MIC [5]: < 1 µg/mL

O=C(NCCCN1CCN(C(=O)N[C@H](C(=O)N[C@H]2Cc3ccc(F)c(C(=O)O)c3OB2O)c2cc(F)c(O)c(O)c2Cl)C(=O)C1=O)c1ccc(O)cc1Cl (single isomer, unassigned) [Example 470]
IC50 [1]: 10 to 50 µM | MIC [2]: < 1 µg/mL | MIC [3]: 8 to 16 µg/mL (≈ 10.1 to 20.1 µM) | MIC [4]: < 1 µg/mL | MIC [5]: 8 to 16 µg/mL (≈ 10.1 to 20.1 µM)

O=C(NCCCN1CCN(C(=O)N[C@@H](C(=O)N[C@H]2Cc3ccc(F)c(C(=O)O)c3OB2O)c2cc(F)c(O)c(O)c2Cl)C(=O)C1=O)c1ccc(O)cc1Cl (single isomer, unassigned) [Example 471]
IC50 [1]: < 10 µM | MIC [2]: < 1 µg/mL | MIC [3]: < 1 µg/mL | MIC [4]: < 1 µg/mL | MIC [5]: < 1 µg/mL

O=C(NCCCN1CCN(C(=O)N[C@H](C(=O)N[C@H]2Cc3ccc(F)c(C(=O)O)c3OB2O)c2cc(F)c(O)c(O)c2Cl)C(=O)C1=O)c1cc(F)c(O)cc1F (single isomer, unassigned) [Example 472]
IC50 [1]: < 10 µM | MIC [2]: < 1 µg/mL | MIC [3]: 2 to 4 µg/mL (≈ 2.51 to 5.03 µM) | MIC [4]: < 1 µg/mL | MIC [5]: 2 to 4 µg/mL (≈ 2.51 to 5.03 µM)

O=C(NCCCN1CCN(C(=O)N[C@@H](C(=O)N[C@H]2Cc3ccc(F)c(C(=O)O)c3OB2O)c2cc(F)c(O)c(O)c2Cl)C(=O)C1=O)c1cc(F)c(O)cc1F (single isomer, unassigned) [Example 473]
IC50 [1]: < 10 µM | MIC [2]: < 1 µg/mL | MIC [3]: < 1 µg/mL | MIC [4]: < 1 µg/mL | MIC [5]: < 1 µg/mL

O=C(O)c1c(F)ccc2c1OB(O)[C@@H](NC(=O)C(NC(=O)N1CCN(C3CCN(C(=O)c4c(F)ccc(O)c4F)CC3)C(=O)C1=O)c1cc(F)c(O)c(O)c1Cl)C2 (stereo partly drawn) [Example 308, (3R)-3-(2-(2-chloro-5-fluoro-3,4-dihydroxyphenyl)-2-(4-(1-(2,6-difluoro-3-hydroxybenzoyl)piperidin-4-yl)-2,3-dioxopiperazine-1-carboxamido)acetamido)-7-fluoro-2-hydroxy-3,4-dihydro-2H-benzo[e][1,2]oxaborinine-8-carboxylic acid]
IC50 [1]: < 10 µM | MIC [2]: < 1 µg/mL | MIC [3]: < 1 µg/mL | MIC [4]: < 1 µg/mL | MIC [5]: 2 to 4 µg/mL (≈ 2.43 to 4.87 µM)

O=C(O)c1c(F)ccc2c1OB(O)[C@@H](NC(=O)C(NC(=O)N1CCN(C3CCN(C(=O)c4cc(O)cc(O)c4)CC3)C(=O)C1=O)c1cc(F)c(O)c(O)c1Cl)C2 (stereo partly drawn) [Example 309, (3R)-3-(2-(2-chloro-5-fluoro-3,4-dihydroxyphenyl)-2-(4-(1-(3,5-dihydroxybenzoyl)piperidin-4-yl)-2,3-dioxopiperazine-1-carboxamido)acetamido)-7-fluoro-2-hydroxy-3,4-dihydro-2H-benzo[e][1,2]oxaborinine-8-carboxylic acid]
IC50 [1]: < 10 µM | MIC [2]: < 1 µg/mL | MIC [3]: < 1 µg/mL | MIC [4]: < 1 µg/mL | MIC [5]: < 1 µg/mL

CN(CCCN1CCN(C(=O)NC(C(=O)N[C@H]2Cc3ccc(F)c(C(=O)O)c3OB2O)c2cc(F)c(O)c(O)c2Cl)C(=O)C1=O)C(=O)c1cccc(O)c1 (stereo partly drawn) [Example 310, (3R)-3-(2-(2-chloro-5-fluoro-3,4-dihydroxyphenyl)-2-(4-(3-(3-hydroxy-N-methylbenzamido)propyl)-2,3-dioxopiperazine-1-carboxamido)acetamido)-7-fluoro-2-hydroxy-3,4-dihydro-2H-benzo[e][1,2]oxaborinine-8-carboxylic acid]
IC50 [1]: < 10 µM | MIC [2]: < 1 µg/mL | MIC [3]: < 1 µg/mL | MIC [4]: < 1 µg/mL | MIC [5]: < 1 µg/mL

O=C(NCCCN1CCN(C(=O)NC(C(=O)N[C@H]2Cc3ccc(F)c(C(=O)O)c3OB2O)c2cc(F)c(O)c(O)c2Cl)C(=O)C1=O)c1ccncc1F (stereo partly drawn) [Example 400, (3R)-3-(2-(2-chloro-5-fluoro-3,4-dihydroxyphenyl)-2-(4-(3-(3-fluoroisonicotinamido)propyl)-2,3-dioxopiperazine-1-carboxamido)acetamido)-7-fluoro-2-hydroxy-3,4-dihydro-2H-benzo[e][1,2]oxaborinine-8-carboxylic acid]
IC50 [1]: < 10 µM | MIC [2]: < 1 µg/mL | MIC [3]: < 1 µg/mL | MIC [4]: < 1 µg/mL | MIC [5]: 2 to 4 µg/mL (≈ 2.62 to 5.24 µM)

O=C(NCCCN1CCN(C(=O)NC(C(=O)N[C@H]2Cc3ccc(F)c(C(=O)O)c3OB2O)c2cc(F)c(O)c(O)c2Cl)C(=O)C1=O)c1c(F)cncc1F (stereo partly drawn) [Example 402, (3R)-3-(2-(2-chloro-5-fluoro-3,4-dihydroxyphenyl)-2-(4-(3-(3,5-difluoroisonicotinamido)propyl)-2,3-dioxopiperazine-1-carboxamido)acetamido)-7-fluoro-2-hydroxy-3,4-dihydro-2H-benzo[e][1,2]oxaborinine-8-carboxylic acid]
IC50 [1]: < 10 µM | MIC [2]: < 1 µg/mL | MIC [3]: < 1 µg/mL | MIC [4]: < 1 µg/mL | MIC [5]: 2 to 4 µg/mL (≈ 2.56 to 5.12 µM)

O=C(NCCCN1CCN(C(=O)NC(C(=O)N[C@H]2Cc3ccc(F)c(C(=O)O)c3OB2O)c2cc(F)c(O)c(O)c2Cl)C(=O)C1=O)c1c(F)cncc1Cl (stereo partly drawn) [Example 403, (3R)-3-(2-(2-chloro-5-fluoro-3,4-dihydroxyphenyl)-2-(4-(3-(3-chloro-5-fluoroisonicotinamido)propyl)-2,3-dioxopiperazine-1-carboxamido)acetamido)-7-fluoro-2-hydroxy-3,4-dihydro-2H-benzo[e][1,2]oxaborinine-8-carboxylic acid]
IC50 [1]: < 10 µM | MIC [2]: < 1 µg/mL | MIC [3]: < 1 µg/mL | MIC [4]: < 1 µg/mL | MIC [5]: 2 to 4 µg/mL (≈ 2.51 to 5.02 µM)

O=C(NCCCN1CCN(C(=O)NC(C(=O)N[C@H]2Cc3ccc(F)c(C(=O)O)c3OB2O)c2cc(F)c(O)c(O)c2Cl)C(=O)C1=O)c1cc(F)c(F)c(O)c1F (stereo partly drawn) [Example 404, (3R)-3-(2-(2-chloro-5-fluoro-3,4-dihydroxyphenyl)-2-(2,3-dioxo-4-(3-(2,4,5-trifluoro-3-hydroxybenzamido)propyl)piperazine-1-carboxamido)acetamido)-7-fluoro-2-hydroxy-3,4-dihydro-2H-benzo[e][1,2]oxaborinine-8-carboxylic acid]
IC50 [1]: < 10 µM | MIC [2]: < 1 µg/mL | MIC [3]: < 1 µg/mL | MIC [4]: < 1 µg/mL | MIC [5]: > 128 µg/mL

O=C(NCCCN1CCN(C(=O)NC(C(=O)N[C@H]2Cc3ccc(F)c(C(=O)O)c3OB2O)c2cc(F)c(O)c(O)c2Cl)C(=O)C1=O)c1cccc(O)c1F (stereo partly drawn) [Example 406, (3R)-3-(2-(2-chloro-5-fluoro-3,4-dihydroxyphenyl)-2-(4.-(3-(2-fluoro-3-hydroxybenzamido)propyl)-2,3-dioxopiperazine-1-carboxamido)acetamido)-7-fluoro-2-hydroxy-3,4-dihydro-2H-benzo[e][1,2]oxaborinine-8-carboxylic acid]
IC50 [1]: < 10 µM | MIC [2]: < 1 µg/mL | MIC [3]: < 1 µg/mL | MIC [4]: < 1 µg/mL | MIC [5]: 8 to 16 µg/mL (≈ 10.3 to 20.6 µM)
